These results are taken from ChEMBL document CHEMBL1687731, “Reverse transcriptase inhibitors as potential colorectal microbicides” (Antimicrob Agents Chemother, 2009).

Broadly, the IC50 is the concentration that inhibits the measured activity by half.

Active and inactive are the calls of the source. The rule behind the calls is not given here. Bounds are passed on as bounds.

In series [1] the test system is Human immunodeficiency virus 1. Kind of series: Antiviral activity against X4 tropic HIV1 RF infected in human TZM-b1 cells after 2 hrs by luciferase assay. It counts as functional, organism-based. As to conditions: Human immunodeficiency virus 1, RF, TZM-b1, 2 h.
Series [2] has as its system Human immunodeficiency virus 1. The experiment in a line: Antiviral activity against X4 tropic HIV1 3B infected in human TZM-b1 cells after 2 hrs by luciferase assay. It counts as functional, organism-based. Particulars: Human immunodeficiency virus 1, 3B, TZM-b1, 2 h.
The test system of series [3] is Human immunodeficiency virus 1. The experiment in a line: Antiviral activity against R5 tropic HIV1 BaL infected in human TZM-b1 cells after 2 hrs by luciferase assay. As to conditions: Human immunodeficiency virus 1, BaL, TZM-b1, 2 h. In kind it is functional, organism-based.
Series [4] concerns Human immunodeficiency virus 1. Kind of series: Antiviral activity against R5 tropic HIV1 YU.2 infected in human TZM-b1 cells after 2 hrs by luciferase assay. In kind it is functional, organism-based. As to conditions: Human immunodeficiency virus 1, YU.2, TZM-b1, 2 h.
Series [5] concerns Human immunodeficiency virus 1. The experiment in a line: Antiviral activity against X4 tropic HIV1 NL4.3 infected in human TZM-b1 cells after 2 hrs by luciferase assay. It counts as functional, organism-based. As to conditions: Human immunodeficiency virus 1, NL4.3, TZM-b1, 2 h.
Series [6] has as its system Human immunodeficiency virus 1. Kind of series: Antiviral activity against R5 tropic HIV1 R8.BaL infected in human TZM-b1 cells after 2 hrs by luciferase assay. Particulars: Human immunodeficiency virus 1, R8.BaL, TZM-b1, 2 h. It counts as functional, organism-based.
For series [7], the system named is Human immunodeficiency virus 1. The experiment in a line: Antiviral activity against X4 tropic HIV1 RF infected in human PBMC assessed as inhibition of p24 antigen production after 2 hrs by ELISA. In kind it is functional, organism-based. As to conditions: Human immunodeficiency virus 1, RF. A general note: In an ELISA, binding on a coated surface is turned into a signal by an enzyme label.

Series [8] can be described thus: Cytotoxicity against human TZM-bl cells by MTT assay. It counts as cell-based. Background: Formazan colour is commonly taken as a measure of viable cells.
Series [9] deals with Human immunodeficiency virus 1. Kind of series: Ratio of IC50 for wild type HIV1 to IC50 for HIV1 A17 harboring reverse transcriptase K103N, Y181C mutant. In kind it is functional.
Series [10] relates to Human immunodeficiency virus 1. The experiment in a line: Antiviral activity against HIV1 A17 harboring reverse transcriptase K103N, Y181C mutant infected in human TZM-b1 cells after 2 hrs by luciferase assays. In kind it is functional, organism-based.
Series [11] deals with Human immunodeficiency virus 1. Kind of series: Antiviral activity against R5 tropic HIV1 YU.2 infected in human PBMC assessed as inhibition of p24 antigen production after 2 hrs by ELISA. It counts as functional, organism-based. As to conditions: Human immunodeficiency virus 1, YU.2, 2 h.
The subject of series [12] is Human immunodeficiency virus 1. The experiment in a line: Antiviral activity against X4 tropic HIV1 NL4.3 infected in human PBMC assessed as inhibition of p24 antigen production after 2 hrs by ELISA. It counts as functional, organism-based. As to conditions: Human immunodeficiency virus 1, NL4.3, 2 h.
The test system of series [13] is Human immunodeficiency virus 1. The experiment in a line: Antiviral activity against R5 tropic HIV1 R8.BaL infected in human PBMC assessed as inhibition of p24 antigen production after 2 hrs by ELISA. It counts as functional, organism-based. As to conditions: Human immunodeficiency virus 1, R8.BaL.
The test system of a further series is PBMC. Kind of series: Cytotoxicity against human PBMC by MTT assay. It counts as cell-based.
Series [14] relates to Human immunodeficiency virus 1. The experiment in a line: Antiviral activity against HIV1 isolate 71361-1 harboring reverse transcriptase K65R mutant infected in human TZM-b1 cells after 2 hrs by luciferase assays. In kind it is functional, organism-based.
In series [15] the test system is Human immunodeficiency virus 1. The experiment in a line: Antiviral activity against HIV1 isolate 8415-2 harboring reverse transcriptase K65R mutant co-expressing M184V mutant infected in human TZM-b1 cells after 2 hrs by luciferase assays. In kind it is functional, organism-based. Particulars: Human immunodeficiency virus 1, isolate 8415-2, TZM-b1, 2 h.

Turning to `Cc1cc(C)c(Nc2ccnc(Nc3ccc(C#N)cc3)n2)c(C)c1` [DAPIVIRINE], the IC50 in series [1] came to 0.84 nM; in [2], 0.53 nM; in [3] it was 0.8 nM; in [4], 0.15 nM; in series [5] it was 0.37 nM; in series [6] it was 0.19 nM. For the same compound, the IC50 came to 1.48 nM in series [7]; 8.34 nM in series [10] (Human immunodeficiency virus 1, A17, TZM-b1, 2 h); 1.11 nM in series [11]; 1.15 nM in [12]; 1.09 nM in series [13]. Besides, the Activity entry (in [8]; with PBMC) was “Non-toxic” throughout. For the same compound, in series [9], the “Ratio IC50” value is 17. The result in series [14] was inactive.
With `C[C@H](Cn1cnc2c(N)ncnc21)OCP(=O)(O)O` [TENOFOVIR ANHYDROUS], the IC50 turned out to be 4030 nM in series [1]; 2300 nM in series [2]; 2520 nM in [3]; 3340 nM in series [4]; 6690 nM in series [5]; 4590 nM in [6]. Besides, the IC50 in series [7] is 1600 nM; in series [11], 884 nM; in series [12], 1400 nM; in series [13], 1010 nM; in series [14] (Human immunodeficiency virus 1, isolate 71361-1, TZM-b1, 2 h), greater than 30000 nM; in series [15], 820 nM. Further, the Activity result (in series [8]; with PBMC) was “Non-toxic” throughout.
For the compound `CC(C)=CCOc1cc(NC(=S)c2ccoc2C)ccc1Cl` [UC 781], the half-inhibitory concentration (IC50) in [1] is 6.01 nM; in series [2], 7.99 nM; in [3], 9.34 nM; in series [4], 5.87 nM; in [5] it was 10.2 nM; in series [6], 5.86 nM. The concentration for half-maximal inhibition (IC50) in series [7] amounted to 9.2 nM; in [11] it was 11.2 nM; in series [12], 17.6 nM; in [13], 10.2 nM. For the same compound, the Activity result (in [8]; in the series on PBMC) was “Non-toxic” in each case. The outcome in [10] was inactive.
